For one test, the target named is T1, hPPARα (Homo sapiens, UniProt Q07869).
T1 construct: fragments of DNA amplified by PCR corresponding to the DEF domains of the human PPARα, PPARγ PPARδ nuclear receptors; expressed in transfected cells; host or cells: COS-7 (monkey kidney fibroblast line)
T1 sequence (Q07869 239-466 limits assumed): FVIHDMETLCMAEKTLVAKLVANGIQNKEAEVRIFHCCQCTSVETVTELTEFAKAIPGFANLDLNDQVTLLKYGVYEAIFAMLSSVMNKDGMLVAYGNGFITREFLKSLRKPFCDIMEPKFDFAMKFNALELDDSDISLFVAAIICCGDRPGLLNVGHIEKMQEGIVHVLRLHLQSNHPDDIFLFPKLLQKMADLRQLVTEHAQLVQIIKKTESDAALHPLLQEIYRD
Briefly: Gal4-hPPARα chimera transactivation in COS-7 cells (luciferase). It counts as cell-based. The note with it: induction factor standardised to an internal reference, read-out: % hGal4-PPAR transactivation (10 μM) alpha. The gist of the method:
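COS-7 cells transiently transfected with Gal4-DBD/human PPAR DEF-domain chimeras plus Gal4(RE)_TkpGL3 luciferase reporter (1/10 ratio), then exposed 24 h serum-free to compound at 10 μM. Luciferase induction factor over control, normalised to an internal reference per isoform, expressed as percent activation.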

The target of test [1] is T2, ATP-dependent potassium channels (K+ATP) (Rattus norvegicus, UniProt Q09429).
T2 construct: the potassium channels derive from a rat's cerebral cortex; tissue CEREP; host or cells: rat cerebral cortex
T2 sequence (Q09429 whole entry): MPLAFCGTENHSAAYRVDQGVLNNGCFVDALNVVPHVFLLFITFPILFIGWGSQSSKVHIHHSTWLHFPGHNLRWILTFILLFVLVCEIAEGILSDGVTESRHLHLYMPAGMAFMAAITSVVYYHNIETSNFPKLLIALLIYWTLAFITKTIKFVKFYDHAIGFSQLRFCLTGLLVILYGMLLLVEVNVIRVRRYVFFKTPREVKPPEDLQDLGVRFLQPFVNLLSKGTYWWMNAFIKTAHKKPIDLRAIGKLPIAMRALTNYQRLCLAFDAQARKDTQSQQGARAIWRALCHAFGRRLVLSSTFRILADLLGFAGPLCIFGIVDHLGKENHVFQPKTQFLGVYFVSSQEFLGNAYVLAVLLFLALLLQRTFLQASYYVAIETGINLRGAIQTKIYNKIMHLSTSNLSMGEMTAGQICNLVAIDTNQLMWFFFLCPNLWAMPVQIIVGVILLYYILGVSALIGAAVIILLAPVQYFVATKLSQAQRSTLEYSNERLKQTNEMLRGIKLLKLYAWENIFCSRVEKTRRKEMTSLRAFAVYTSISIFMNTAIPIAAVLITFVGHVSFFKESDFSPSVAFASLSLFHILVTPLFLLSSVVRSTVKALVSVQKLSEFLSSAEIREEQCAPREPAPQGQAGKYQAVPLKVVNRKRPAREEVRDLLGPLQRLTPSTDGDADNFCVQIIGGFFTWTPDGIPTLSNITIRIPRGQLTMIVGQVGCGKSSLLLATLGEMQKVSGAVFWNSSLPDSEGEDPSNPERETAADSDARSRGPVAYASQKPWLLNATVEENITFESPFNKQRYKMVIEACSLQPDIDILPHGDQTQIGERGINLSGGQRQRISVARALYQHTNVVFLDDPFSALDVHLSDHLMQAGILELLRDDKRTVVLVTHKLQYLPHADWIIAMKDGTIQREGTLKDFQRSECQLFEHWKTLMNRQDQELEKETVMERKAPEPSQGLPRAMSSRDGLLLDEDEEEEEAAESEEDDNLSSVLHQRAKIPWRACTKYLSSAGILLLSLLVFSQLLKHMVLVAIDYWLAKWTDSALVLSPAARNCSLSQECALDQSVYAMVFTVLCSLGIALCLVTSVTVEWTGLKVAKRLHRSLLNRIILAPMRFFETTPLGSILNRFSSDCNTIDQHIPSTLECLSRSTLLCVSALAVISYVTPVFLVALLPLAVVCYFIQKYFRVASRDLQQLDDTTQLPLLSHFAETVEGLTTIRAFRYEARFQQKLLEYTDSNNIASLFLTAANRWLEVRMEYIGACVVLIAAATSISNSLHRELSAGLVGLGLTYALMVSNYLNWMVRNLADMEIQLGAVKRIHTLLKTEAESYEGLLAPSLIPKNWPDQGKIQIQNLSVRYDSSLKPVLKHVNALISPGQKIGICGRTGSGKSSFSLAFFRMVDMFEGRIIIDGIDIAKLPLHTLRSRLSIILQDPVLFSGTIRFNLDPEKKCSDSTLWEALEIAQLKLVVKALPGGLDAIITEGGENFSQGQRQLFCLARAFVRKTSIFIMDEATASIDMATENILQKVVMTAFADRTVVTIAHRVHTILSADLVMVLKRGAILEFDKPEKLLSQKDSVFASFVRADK
T2 sequence (P70673 whole entry partner): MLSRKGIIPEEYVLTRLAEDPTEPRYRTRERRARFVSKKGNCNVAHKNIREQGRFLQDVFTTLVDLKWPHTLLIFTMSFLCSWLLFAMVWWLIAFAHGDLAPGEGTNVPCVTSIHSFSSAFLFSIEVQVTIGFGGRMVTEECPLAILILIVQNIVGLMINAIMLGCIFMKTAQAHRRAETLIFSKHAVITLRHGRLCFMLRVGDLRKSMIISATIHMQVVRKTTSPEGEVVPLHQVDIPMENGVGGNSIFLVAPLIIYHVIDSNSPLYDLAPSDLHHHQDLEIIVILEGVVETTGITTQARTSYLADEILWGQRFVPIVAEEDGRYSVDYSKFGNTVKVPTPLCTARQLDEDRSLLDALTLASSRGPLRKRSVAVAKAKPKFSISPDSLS
Briefly: [3H]glibenclamide binding to ATP-dependent potassium channels of rat cerebral cortex. The note with it: 1 h; 300 nM; specific displacement of [3H]glibenclamide 0.1 nM; read-out: KATP binding (300 nM). Put shortly: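 Rat cerebral cortex membranes incubated 1 h at 22° C with 0.1 nM [3H]glibenclamide; nonspecific binding defined with 1 μM unlabelled glibenclamide. Compounds tested at 3–300 nM; values are percent inhibition of specific binding.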
A general note: In a radioligand displacement assay an active substance lowers the binding of a labelled ligand.

Test [2] concerns Male Dunkin Hartley guinea pigs. The test can be described thus: Lipid-lowering effect in guinea pigs on a cholesterol and fat enriched diet. It counts as in vivo, guinea pig. To be noted: 200 mpk for 14 days; high fat diet. The protocol: The lipid-lowering effect of the inventive compounds was evaluated in vivo in Hartley guinea pigs. In guinea pigs, as in man, a diet enriched in cholesterol and fatty acids induces an increase in the plasmatic levels of lipids. Plasmatic lipid levels (cholesterol and triglycerides) after 14 days treatment were measured and compared to the levels observed for non-treated animals (controls).
Male Dunkin Hartley guinea pigs (Harlan, Gannat, France) aged 5-6 weeks at the start of the experiment were put in groups of 6 animals selected such that the distribution of their body weight and of their plasmatic lipid levels determined before the experiment were uniform. The guinea pigs were given a diet containing 0.2% cholesterol and 14% fats (Research Diets Inc.-USA). They were kept in a 12 hour/12 hour light/dark cycle at a constant temperature of 20±3° C. and had free access to water and food. The amount of food eaten and the increase in weight were recorded. The compounds tested were suspended in an aqueous carboxymethylcellulose solution (Sigma C4888) at 1% containing 0.1% Tween80 (Sigma P8074) and administered daily by intragastric gavage for 14 days at a dose of 200 mg/kg/day. […]
The plasmatic concentrations of the lipids (total cholesterol and triglycerides) were measured by enzymatic titrations (bioMérieux-Lyon-France) according to the supplier's recommendations.

Take `CCCCC(NC(=O)Cc1ccc(OC(C)(C)C(=O)NS(C)(=O)=O)cc1)c1ccccc1N1CCCCC1` (stereo not shown) [Compound 52, N-[methylsulfonyl]-2-[4-[1-(1-(2-(1-piperidinyl)phenyl)pentyl)aminocarbonylmethyl]phenoxy]-2-methylpropanamide]: the activation at 10 µM at hPPARα turned out to be 42%. Further, in test [1], the inhibition at 0.3 µM stood at 83%. In test [2], the “Cholesterol plasmatic levels, lower than controls” value is given as “approximately 45%” and the “Triglycerides plasmatic levels, lower than controls” value was “approximately 22%”.

The values are drawn from US20060079696A1, “Substituted compounds derived from N-(benzyl)phenylacetamide, preparation and uses” (GENFIT, priority 2004, published 2006).
